How the values were obtained:
SB.mhdgc-1 = test: AC50 for growth inhibition (viability) (log10 M); higher = less potent; conditions: SB.mhdgc-1 (hereditary c.1380delA CDH1 gastric cancer)
Method in brief: (§1)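 Dosing used a pintool to add 23 nL compound in DMSO to 1536 wells, each with 500 hereditary or sporadic patient-derived gastric cancer cells, across 11 threefold dilutions starting at a final 46 μM. Viability after 48 h was measured by CellTiter-Glo luminescence on a ViewLux. The log half-maximal activity concentration derives from a four-parameter fit of that viability normalised to DMSO, limited to high-quality curve classes.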

SB.msgc-1 = test: as above; conditions: SB.msgc-1 (sporadic gastric cancer)
Method in brief: as §1

CCCNC(=O)[C@H]1O[C@@H]1C(=O)N[C@H](C(=O)N1CCC[C@H]1C(=O)OC)C(C)CC (stereo partly specified) [CA-074 Me]
AC50 for growth inhibition (log10 M) (SB.mhdgc-1): -4.78
AC50 for growth inhibition (log10 M) (SB.msgc-1): -4.73

CC(C)(O)CC(=O)NCCn1ccc2ncnc(Nc3ccc(Oc4cccc(C(F)(F)F)c4)c(Cl)c3)c21 [TAK-285]
AC50 for growth inhibition (log10 M) (SB.mhdgc-1): -5.43
AC50 for growth inhibition (log10 M) (SB.msgc-1): -6.88

O=C1Nc2cc(Br)ccc2/C1=C1/Nc2ccccc2/C1=N\O [BIO]
AC50 for growth inhibition (log10 M) (SB.mhdgc-1): -4.78
AC50 for growth inhibition (log10 M) (SB.msgc-1): -4.98

c1ccc2c(Cc3c[nH]c4ccccc34)c[nH]c2c1 [Diindolylmethane]
AC50 for growth inhibition (log10 M) (SB.mhdgc-1): -6.13
AC50 for growth inhibition (log10 M) (SB.msgc-1): -5.63

COc1cc(C)c(Sc2cnc(NC(=O)c3ccc(CNC(C)C(C)(C)C)cc3)s2)cc1C(=O)N1CCN(C(C)=O)CC1 (stereo unspecified)
AC50 for growth inhibition (log10 M) (SB.mhdgc-1): -4.98
AC50 for growth inhibition (log10 M) (SB.msgc-1): -4.98

Cc1cc(Nc2cc(NC(=O)c3c(Cl)cccc3Cl)ccn2)nc(N)n1 [RO495]
AC50 for growth inhibition (log10 M) (SB.mhdgc-1): -5.58
AC50 for growth inhibition (log10 M) (SB.msgc-1): -6.38

C[C@]\12CC[C@H](O)CC1=C/CC3C2CC[C@@]\4(C)C3C\C=C4[N]5C=NC6=C5C=CC=C6 (stereo partly specified) [Galeterone]
AC50 for growth inhibition (log10 M) (SB.mhdgc-1): -4.68
AC50 for growth inhibition (log10 M) (SB.msgc-1): -4.68

CC(C)n1cnc2c(NCCCCCCNC(=O)OC(C)(C)C)nc(NCCO)nc21 [CK59]
AC50 for growth inhibition (log10 M) (SB.mhdgc-1): -4.93
AC50 for growth inhibition (log10 M) (SB.msgc-1): -5.23

CC(C)C[C@@H](C(=O)N[C@H](C(=O)OC1CCCC1)c1ccccc1)[C@H](O)C(=O)NO [Tosedostat]
AC50 for growth inhibition (log10 M) (SB.mhdgc-1): -5.43
AC50 for growth inhibition (log10 M) (SB.msgc-1): -4.83

CC1=CC=C(C=C1)\C2=N\C3=CC=C(Cl)C=C3OC2 [AR7]
AC50 for growth inhibition (log10 M) (SB.mhdgc-1): -5.03
AC50 for growth inhibition (log10 M) (SB.msgc-1): -5.03

CC(=O)Nc1sc2c(c1-c1nc3ccccc3s1)CNC2
AC50 for growth inhibition (log10 M) (SB.mhdgc-1): -6.08
AC50 for growth inhibition (log10 M) (SB.msgc-1): -4.68

CC[C@@]1(O)C[C@H](O[C@H]2C[C@H](N(C)C)[C@H](O[C@H]3C[C@H](O)[C@H](O[C@H]4CCC(=O)[C@H](C)O4)[C@H](C)O3)[C@H](C)O2)c2c(cc3c(c2O)C(=O)c2c(O)cccc2C3=O)[C@H]1C(=O)OC [Aclarubicin]
AC50 for growth inhibition (log10 M) (SB.mhdgc-1): -6.78
AC50 for growth inhibition (log10 M) (SB.msgc-1): -6.28

CC(C)(F)C[C@H](N[C@@H](c1ccc(-c2ccc([S+](C)(=O)[O-])cc2)cc1)C(F)(F)F)C(=O)NC1(C#N)CC1 [Odanacatib]
AC50 for growth inhibition (log10 M) (SB.mhdgc-1): -5.38
AC50 for growth inhibition (log10 M) (SB.msgc-1): -4.88

CCC(C1CCC(C)C(O1)C(C)C(O)C(C)C(=O)C(CC)C2OC\3(O[C@]4(CC[C@@](C)(O4)C5CC[C@@](O)(CC)C(C)O5)C(O)\C=C3)C(C)CC2C)C([O-])=O (stereo partly specified) [Salinomycin]
AC50 for growth inhibition (log10 M) (SB.mhdgc-1): -6.28
AC50 for growth inhibition (log10 M) (SB.msgc-1): -6.58

CCN1CCN(C(=O)Cc2ccc(Nc3ncc(F)c(Nc4ccc(C(=O)Nc5ccccc5Cl)cc4)n3)cc2)CC1 [Aurora A Inhibitor I]
AC50 for growth inhibition (log10 M) (SB.mhdgc-1): -4.78
AC50 for growth inhibition (log10 M) (SB.msgc-1): -4.73

Cl.Cl.Cl.O[C@@H](COc1cccc2ncccc12)CN1CCN([C@@H]2c3ccccc3[C@@H]3[C@H](c4ccccc42)C3(F)F)CC1 [Zosuquidar trihydrochloride]
AC50 for growth inhibition (log10 M) (SB.mhdgc-1): -4.93
AC50 for growth inhibition (log10 M) (SB.msgc-1): -5.28

CN(C)CCCN\C1=C\2C(=O)N(C)C(=O)\N=C2N(C)C3=C1C=CC=C3
AC50 for growth inhibition (log10 M) (SB.mhdgc-1): -5.73
AC50 for growth inhibition (log10 M) (SB.msgc-1): -4.73

CN[C@H]1CCC2=CC(=C(OC)C(=C2C/3=C/C=C(OC)\C(=O)/C=C13)OC)OC [Demecolcine]
AC50 for growth inhibition (log10 M) (SB.mhdgc-1): -8.13
AC50 for growth inhibition (log10 M) (SB.msgc-1): -8.83

Nc1nc(Cl)nc2c1ncn2[C@@H]1O[C@H](CO)[C@@H](O)[C@@H]1F [Clofarabine]
AC50 for growth inhibition (log10 M) (SB.mhdgc-1): -7.83
AC50 for growth inhibition (log10 M) (SB.msgc-1): -8.28

COc1ccc(Nc2cc(-c3cnc(N)nc3)nc(N3CCOCC3)n2)cn1 [NIBR-17]
AC50 for growth inhibition (log10 M) (SB.mhdgc-1): -6.48
AC50 for growth inhibition (log10 M) (SB.msgc-1): -5.18

Cc1nnc(C(C)C)n1[C@@H]1C[C@H]2CC[C@@H](C1)N2CC[C@H](NC(=O)C1CCC(F)(F)CC1)c1ccccc1 [Maraviroc]
AC50 for growth inhibition (log10 M) (SB.mhdgc-1): -5.18
AC50 for growth inhibition (log10 M) (SB.msgc-1): -4.78

Cc1c(CCOc2ccc(C(=O)O)cc2)c2cc(Cl)ccc2n1C(c1ccccc1)c1ccccc1 [CDIBA]
AC50 for growth inhibition (log10 M) (SB.mhdgc-1): -4.73
AC50 for growth inhibition (log10 M) (SB.msgc-1): -4.98

N[S+]([O-])(=O)C1=CC=C(NC/2=C/C(=O)C3=CC=CC=C3C2=O)C=C1
AC50 for growth inhibition (log10 M) (SB.mhdgc-1): -6.23
AC50 for growth inhibition (log10 M) (SB.msgc-1): -4.98

C[N+](C)([O-])CCNc1ccc(NCC[N+](C)(C)[O-])c2c1C(=O)c1c(O)ccc(O)c1C2=O [Banoxantrone]
AC50 for growth inhibition (log10 M) (SB.mhdgc-1): -4.78
AC50 for growth inhibition (log10 M) (SB.msgc-1): -4.88

CCOC(=O)C/1=C(C)/NC(=S)NC1C2=CC=CC(=C2)O (stereo unspecified) [Monastrol]
AC50 for growth inhibition (log10 M) (SB.mhdgc-1): -7.38
AC50 for growth inhibition (log10 M) (SB.msgc-1): -7.38

O=C1[C@H](Cc2ccc(O)cc2)N2C(=O)CCN(C(=O)NCc3ccccc3)[C@H]2CN1Cc1cccc2ccccc12 [ICG-001]
AC50 for growth inhibition (log10 M) (SB.mhdgc-1): -4.83
AC50 for growth inhibition (log10 M) (SB.msgc-1): -4.88

O=C(CCCCCCNC(=O)c1cnc(N(c2ccccc2)c2ccccc2)nc1)NO [ACY-1215]
AC50 for growth inhibition (log10 M) (SB.mhdgc-1): -5.23
AC50 for growth inhibition (log10 M) (SB.msgc-1): -5.08

COc1cc([C@@H]2c3cc4c(cc3[C@H](O)[C@H]3COC(=O)[C@@H]23)OCO4)cc(OC)c1OC [Picropodophyllin]
AC50 for growth inhibition (log10 M) (SB.mhdgc-1): -6.48
AC50 for growth inhibition (log10 M) (SB.msgc-1): -6.73

COC/1=C/[C@@H]2[C@@H]3CC4=C(C(=C(OC)C=C4)O)[C@]2(CCN3C)CC1=O [Sinomenine]
AC50 for growth inhibition (log10 M) (SB.mhdgc-1): -6.33
AC50 for growth inhibition (log10 M) (SB.msgc-1): -6.03

S=C(NCc1ccc2c(c1)OCO2)N1CCN(c2ncnc3c2oc2ccccc23)CC1 [Amuvatinib]
AC50 for growth inhibition (log10 M) (SB.mhdgc-1): -4.92
AC50 for growth inhibition (log10 M) (SB.msgc-1): -5.57

C[C@]12CC[C@H]3[C@@H](CC[C@H]4NC(=O)\C=C/[C@]34C)[C@@H]1CC[C@@H]2C(=O)NC5=CC(=CC=C5C(F)(F)F)C(F)(F)F [Dutasteride]
AC50 for growth inhibition (log10 M) (SB.mhdgc-1): -4.78
AC50 for growth inhibition (log10 M) (SB.msgc-1): -4.93

COc1cc2nc(-c3ccc(N4CCN(C)CC4)cc3)nc(NCCN3CCOCC3)c2cc1OC
AC50 for growth inhibition (log10 M) (SB.mhdgc-1): -5.28
AC50 for growth inhibition (log10 M) (SB.msgc-1): -6.78

CCCCc1oc2ccccc2c1C(=O)c1cc(I)c(OCCN(CC)CC)c(I)c1 [Amiodarone]
AC50 for growth inhibition (log10 M) (SB.mhdgc-1): -4.88
AC50 for growth inhibition (log10 M) (SB.msgc-1): -5.03

O=C(/C=C/c1cccc([S+](=O)([O-])Nc2ccccc2)c1)NO [Belinostat]
AC50 for growth inhibition (log10 M) (SB.mhdgc-1): -5.02
AC50 for growth inhibition (log10 M) (SB.msgc-1): -5.47

Cc1ccc(CN2CCNCC2)cc1NC(=O)CNc1ccc(F)c(F)c1
AC50 for growth inhibition (log10 M) (SB.mhdgc-1): -5.93
AC50 for growth inhibition (log10 M) (SB.msgc-1): -5.38

COc1ccc([S+](=O)([O-])Nc2cccnc2Nc2ccc(O)cc2)cc1 [E-7010]
AC50 for growth inhibition (log10 M) (SB.mhdgc-1): -5.83
AC50 for growth inhibition (log10 M) (SB.msgc-1): -6.93

C=CC(=O)Nc1ccc2ncnc(Nc3ccc(OCc4cccc(F)c4)c(Cl)c3)c2c1 [AST-1306]
AC50 for growth inhibition (log10 M) (SB.mhdgc-1): -5.28
AC50 for growth inhibition (log10 M) (SB.msgc-1): -8.33

CCCCC(C)(C)[C@H](O)/C=C/[C@H]1[C@H](O)CC(=O)[C@@H]1C/C=C\CCCC(=O)O [16,16-dimethyl PGE2]
AC50 for growth inhibition (log10 M) (SB.mhdgc-1): -4.68
AC50 for growth inhibition (log10 M) (SB.msgc-1): -4.63
